Data from patent US5958935A, “Substituted 2-anilinopyrimidines useful as protein kinase inhibitors” (Celltech Therapeutics Limited, priority 1995, dated 1999).
pIC50: −log10 of the molar value.

Columns and labels:
Assay type in all cases: biochemical
human p56^lck = human p56^lck (Homo sapiens, UniProt P06239); test: p56^lck kinase assay; conditions: 1 μM ATP, RR-src, pH 7.5, 30° C., 15 min
Protocol: The tyrosine kinase activity of p56^lck was determined using a RR-src peptide (RRLIEDNEYTARG) and [γ-^33 P]ATP as substrates. Quantitation of the ^33 P-phosphorylated peptide formed by the action of p56^lck was achieved using an adaption of the method of Geissler et al (J. Biol. Chem. (1990) 265, 22255-22261).
(§1) All assays were performed in 20 mM HEPES pH 7.5 containing 10 mM MgCl2, 10 mM MnCl2, 0.05% Brij, 1 μM ATP (0.5 μCi[γ-^33 P]ATP) and 0.8 mg/ml RR-src. […] After incubation at 30° C. for 15 min, the reaction was terminated by the addition of one-third volume of stop reagent (0.25 mM EDTA and 33 mM ATP in dH2 O). A 15 μl aliquot was removed, spotted onto a P-30 filtermat (Wallac, Milton Keynes, UK), and washed sequentially with 1% acetic acid and dH2 O to remove ATP. The bound ^33 P-RR-src was quantitated by scintillation counting of the filtermat in a Betaplate scintillation counter (Wallac, Milton Keynes, UK) after addition of Meltilex scintillant (Wallac, Milton Keynes, UK). The dpm obtained, being directly proportional to the amount of ^33 P-RR-src produced by p56^lck, were used to determine the IC50 for each compound.

human p59^fyn = test: p59^fyn kinase assay; conditions: in words
Protocol: Compounds of the invention were assayed for p59^fyn inhibitory activity in a similar manner to the p56^lck assay, using human p59^fyn.

remaining kinases = test: Selectivity over the remaining kinases described (p56^lck, p59^fyn, EGFr, ZAP-70, Csk, protein kinase C assays)
Protocol: as §1
IC50 values for each test inhibitor were determined as described previously in the p56^lck assay.
(§2) The tyrosine kinase activity of ZAP-70 was determined using a capture assay based on that employed above for p56^lck. The RR-src peptide was replaced with polyGlu-Tyr (Sigma; Poole, UK) at a final concentration of 17 μg/ml. After addition of the stopped reaction to the filtermat, trichloroacetic acid 10% (w/v) was employed as the wash reagent instead of acetic acid and a final wash in absolute ethanol was also performed before scintillation counting. IC50 values for each test inhibitor were determined as described above in the p56^lck assay.
(§3) Inhibitor activity against protein kinase C (PKC) was determined using PKC obtained from Sigma Chemical Company (Poole, UK) and a commercially available assay system (Amersham International plc, Little Chalfont, UK). Briefly, PKC catalyses the transfer of the γ-phosphate (^32 p) of ATP to the threonine group on a peptide specific for PKC.
Phosphorylated peptide is bound to phosphocellulose paper, subsequently quantified by scintillation counting and IC50 values determined as before.

protein kinase C (PKC) = test: Protein kinase C assay; conditions: for activity in the protein kinase C assay: in words
Protocol: as §3, with “PKC. Phosphorylated peptide is bound to phosphocellulose paper, subsequently quantified by scintillation counting and IC50 values determined as before.” for “PKC.”

ZAP-70 = biological target: T1, ZAP-70 (Homo sapiens, UniProt P43403); test: ZAP-70 kinase assay; conditions: polyGlu-Tyr 17 μg/ml
T1 sequence (P43403 1-619): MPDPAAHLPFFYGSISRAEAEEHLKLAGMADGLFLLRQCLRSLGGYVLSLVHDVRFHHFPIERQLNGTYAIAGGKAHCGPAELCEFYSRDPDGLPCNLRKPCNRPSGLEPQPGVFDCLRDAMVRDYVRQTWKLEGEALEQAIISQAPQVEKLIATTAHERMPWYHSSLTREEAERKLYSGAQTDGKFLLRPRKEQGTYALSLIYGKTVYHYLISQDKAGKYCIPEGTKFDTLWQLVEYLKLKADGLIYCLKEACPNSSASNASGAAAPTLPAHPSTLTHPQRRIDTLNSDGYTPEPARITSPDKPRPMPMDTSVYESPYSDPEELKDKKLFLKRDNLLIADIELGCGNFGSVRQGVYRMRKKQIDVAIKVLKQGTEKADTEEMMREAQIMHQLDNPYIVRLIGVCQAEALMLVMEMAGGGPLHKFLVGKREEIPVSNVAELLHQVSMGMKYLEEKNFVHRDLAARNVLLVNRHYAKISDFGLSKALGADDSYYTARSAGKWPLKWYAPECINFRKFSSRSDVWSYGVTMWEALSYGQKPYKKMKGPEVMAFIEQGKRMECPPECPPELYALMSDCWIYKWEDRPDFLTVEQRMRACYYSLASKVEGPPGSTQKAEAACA
Protocol: as §2

[1] = relative to p56^lck, remaining = other than p56^lck and p59^fyn
[2] = relative to protein kinase C, remaining = other than protein kinase C
[3] = relative to ZAP-70, remaining = other than ZAP-70 and protein kinase C

human p56^lck, sequence (P06239 whole entry): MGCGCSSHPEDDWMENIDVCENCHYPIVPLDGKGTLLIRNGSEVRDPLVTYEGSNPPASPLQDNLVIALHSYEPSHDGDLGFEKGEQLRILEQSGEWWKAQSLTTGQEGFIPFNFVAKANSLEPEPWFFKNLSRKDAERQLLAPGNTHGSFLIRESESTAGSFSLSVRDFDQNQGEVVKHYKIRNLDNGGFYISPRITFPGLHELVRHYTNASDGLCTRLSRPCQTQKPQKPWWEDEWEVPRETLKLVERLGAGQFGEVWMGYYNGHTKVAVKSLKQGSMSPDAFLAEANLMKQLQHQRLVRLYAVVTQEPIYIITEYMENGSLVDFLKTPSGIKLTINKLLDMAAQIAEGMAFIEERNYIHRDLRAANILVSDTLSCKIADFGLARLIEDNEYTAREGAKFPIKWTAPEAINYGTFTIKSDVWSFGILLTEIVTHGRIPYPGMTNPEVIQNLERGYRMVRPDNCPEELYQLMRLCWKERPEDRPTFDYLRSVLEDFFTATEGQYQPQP

Row | SMILES | pIC50 (human p56^lck) | activity against p59^fyn (human p59^fyn) | IC50 values at least 10× greater against the remaining kinases (remaining kinases; [1]) | pIC50 (protein kinase C (PKC)) | IC50 values at least 10× greater against the remaining kinases (remaining kinases; [2]) | pIC50 (ZAP-70) | activity in the protein kinase C assay (protein kinase C (PKC)) | IC50 values at least 10× greater against the remaining kinases (remaining kinases; [3])
1 | CCOC(=O)Cc1ccc(Nc2ccnc(Nc3cc(OC)c(OC)c(OC)c3)n2)cc1 [Example 103, N4-(4-(Ethoxycarbonylmethyl)phenyl)-N2-(3,4,5-trimethoxyphenyl)-2,4-pyrimidinediamine] | 7.40 | active | at least 10 × | – | – | – | – | –
2 | COc1cc(Nc2nccc(-c3ccc(NCCC4CCCN4C)nc3)n2)cc(OC)c1OC (stereo not shown) [Example 81, 4-(2-(2-(1-Methylpyrrolidin-2-yl)ethylamino)pyridin-5-yl)-N-(3,4,5-trimethoxyphenyl)-2-pyrimidineamine] | – | – | – | 7.04 | at least 10 × | – | – | –
3 | COc1cc(Nc2nccc(-c3ccc(NCCCN)nc3)n2)cc(OC)c1OC [Example 66, 4-(2-(3-Aminopropylamino)pyridin-5-yl)-N-(3,4,5-trimethoxyphenyl)-2-pyrimidineamine] | – | – | – | – | – | 7.17 | active | at least 10 ×
4 | COc1ccc(Nc2ccnc(Nc3cc(OC)c(OC)c(OC)c3)n2)cc1OC [Example 96, N4-(3,4-Dimethoxyphenyl)-N2-(3,4,5-trimethoxyphenyl)-2,4-pyrimidinediamine] | 6.67 | active | at least 10 × | – | – | – | – | –
5 | COc1cc(Nc2nccc(-c3ccc(NCCN)nc3)n2)cc(OC)c1OC [Example 64, 4-(2-(2-Aminoethylamino)pyridin-5-yl)-N-(3,4,5-trimethoxyphenyl)-2-pyrimidineamine] | – | – | – | – | – | 6.91 | active | at least 10 ×
6 | COc1cc(Nc2nccc(-c3cccc(OCCCN)c3)n2)cc(OC)c1OC.Cl.Cl [Example 48, 4-(3-(3-Aminopropoxy)phenyl)-N-(3,4,5-trimethoxyphenyl)-2-pyrimidineamine dihydrochloride] | – | – | – | 7.66 | at least 10 × | – | – | –
